Experimental data published in the NIST ThermoML archive (doi:10.1021/je0601208).

Tests used:
[1] = xn = mol fraction of the nth substance listed
[2] = refractive index (Na D-line) (dimensionless); xn = mol fraction of the nth substance listed; conditions: 100.5 kPa, Liquid, Standard Abbe refractometry

CCOC(=O)c1ccccc1 [ethyl benzoate] + CCO
Conditions | refractive index, 288.15 K | refractive index, 298.15 K | refractive index, 308.15 K | refractive index, 318.15 K | surface tension liquid-gas, 288.15 K [mN/m] | surface tension liquid-gas, 298.15 K [mN/m] | surface tension liquid-gas, 308.15 K [mN/m] | surface tension liquid-gas, 318.15 K [mN/m]
[1], x1 = 0.05 | – | – | – | – | 23.9 | 23.1 | 22.2 | 21.3
[1], x1 = 0.1 | – | – | – | – | 24.7 | 23.9 | 23 | 22.1
[1], x1 = 0.15 | – | – | – | – | 25.5 | 24.6 | 23.7 | 22.8
[1], x1 = 0.2 | – | – | – | – | 26.2 | 25.3 | 24.4 | 23.5
[1], x1 = 0.25 | – | – | – | – | 26.9 | 26 | 25 | 24.1
[1], x1 = 0.3 | – | – | – | – | 27.5 | 26.6 | 25.6 | 24.7
[1], x1 = 0.35 | – | – | – | – | 28.1 | 27.2 | 26.1 | 25.3
[1], x1 = 0.4 | – | – | – | – | 28.7 | 27.7 | 26.7 | 25.8
[1], x1 = 0.45 | – | – | – | – | 29.2 | 28.3 | 27.2 | 26.3
[1], x1 = 0.5 | – | – | – | – | 29.7 | 28.7 | 27.7 | 26.8
[1], x1 = 0.55 | – | – | – | – | 30.2 | 29.2 | 28.1 | 27.3
[1], x1 = 0.6 | – | – | – | – | 30.7 | 29.7 | 28.6 | 27.8
[1], x1 = 0.65 | – | – | – | – | 31.2 | 30.2 | 29.1 | 28.3
[1], x1 = 0.7 | – | – | – | – | 31.8 | 30.8 | 29.6 | 28.8
[1], x1 = 0.75 | – | – | – | – | 32.3 | 31.3 | 30.1 | 29.3
[1], x1 = 0.8 | – | – | – | – | 32.9 | 31.9 | 30.6 | 29.8
[1], x1 = 0.85 | – | – | – | – | 33.6 | 32.5 | 31.2 | 30.4
[1], x1 = 0.9 | – | – | – | – | 34.3 | 33.2 | 31.9 | 31
[1], x1 = 0.95 | – | – | – | – | 35 | 33.9 | 32.6 | 31.8
[1], x1 = 1 | – | – | – | – | 35.7 | 34.6 | 33.3 | 32.5
[2], x1 = 0.05 | 1.38111 | 1.37682 | 1.37237 | 1.36815 | – | – | – | –
[2], x1 = 0.1 | 1.39597 | 1.39165 | 1.38717 | 1.38279 | – | – | – | –
[2], x1 = 0.15 | 1.40895 | 1.40452 | 1.39997 | 1.39551 | – | – | – | –
[2], x1 = 0.2 | 1.42035 | 1.41593 | 1.41131 | 1.40679 | – | – | – | –
[2], x1 = 0.25 | 1.43037 | 1.42598 | 1.42135 | 1.41678 | – | – | – | –
[2], x1 = 0.3 | 1.43936 | 1.43498 | 1.43033 | 1.42576 | – | – | – | –
[2], x1 = 0.35 | 1.44743 | 1.44303 | 1.4384 | 1.43378 | – | – | – | –
[2], x1 = 0.4 | 1.45479 | 1.45038 | 1.44571 | 1.44105 | – | – | – | –
[2], x1 = 0.45 | 1.46145 | 1.45702 | 1.45236 | 1.44765 | – | – | – | –
[2], x1 = 0.5 | 1.4675 | 1.46309 | 1.45841 | 1.45369 | – | – | – | –
[2], x1 = 0.55 | 1.47305 | 1.46865 | 1.46393 | 1.45918 | – | – | – | –
[2], x1 = 0.6 | 1.47816 | 1.47372 | 1.46901 | 1.46424 | – | – | – | –
[2], x1 = 0.65 | 1.48283 | 1.4784 | 1.47368 | 1.4689 | – | – | – | –
[2], x1 = 0.7 | 1.48715 | 1.48273 | 1.47801 | 1.47321 | – | – | – | –
[2], x1 = 0.75 | 1.49115 | 1.48675 | 1.48203 | 1.47724 | – | – | – | –
[2], x1 = 0.8 | 1.49488 | 1.49047 | 1.48578 | 1.48098 | – | – | – | –
[2], x1 = 0.85 | 1.4984 | 1.49401 | 1.48929 | 1.48449 | – | – | – | –
[2], x1 = 0.9 | 1.5017 | 1.49731 | 1.49257 | 1.48776 | – | – | – | –
[2], x1 = 0.95 | 1.50477 | 1.50037 | 1.49565 | 1.49086 | – | – | – | –
[2], x1 = 1 | 1.5076 | 1.50328 | 1.49863 | 1.49391 | – | – | – | –
